We go through two molecules from article PMC13500670, “The U1 snRNP protein U1C and Helix H of U1 snRNA are critical for small molecule splicing modulator function” (Nature Communications, 2026).

For assay [1], the target named is T1, U1 snRNP + FOXM1 5' ss oligo (Homo sapiens, UniProt P09234).
T1 construct: host or cells: either HeLa-S3 U1A-HTP cells (native, as F1) or E. coli proteins (reconstituted, as F2)
In words: FP: U1 snRNP binding to FOXM1 5' ss oligo (Supplementary Fig. 2). As for the experimental part: All of 5′-FAM labeled RNA oligos used in this study were synthesized and purified by IDT (USA). Fluorescence polarization (FP) assays were performed in binding buffer (20 mM HEPES pH 7.5, 1 mM MgCl2, 200 mM KCl, 0.01% TritonX-100, 0.1%PEG3350, 2%DMSO) at room temperature using a Envision HTS Plate Reader system (Revvity). Each reaction system contains 3 nM of FAM-labeled RNA oligo, reconstituted U1 snRNP (or native U1 snRNP, or full-length U1 snRNA, or the 5′end of U1 snRNA) at twofold increasing concentrations, 800 nM (for reconstituted U1 snRNP) or 400 nM (for native U1 snRNP) U1C, different small molecules in DMSO (10 μM unless otherwise stated). The equilibrium dissociation constants (Kd) of binding reaction were calculated using the following single-site binding model formula in GraphPad Prism: y=START+(END−START)x/kD+x where x and y represent the concentration of U1 snRNP (or U1 snRNA) and the polarization value measured respectively, START represents the polarization value of protein-free nucleic acid probe, END represents the maximum polarization value when U1 snRNP (or U1 snRNA) binds to the fluorescently labeled 5′ ss oligo. All FP experiments are carried out in two distinct biological replicates and error bars represent the standard deviation.

The test system of assay [2] is cassette exon / GA/GU iExon inclusion, HEK293 cells, scr siRNA. In words: RNA-seq splicing analysis, compound dose response, scrambled (mock) siRNA. The class given is cell-based, human. The text has this: (§1) Skipped exons are highly enriched for noncanonical 5′ ss sequences (on either the intronic or exonic side), which account for 90% of skipped exons (Supplementary Fig. 8C). For example, among skipped exons with a canonical exonic 5′ ss sequence, 74% contain noncanonical intron sequence. These observations are consistent with the previous published role for U1C stabilization of the U1 snRNA-pre-mRNA duplex at the 5′ ss[25]–[28]. […] We will refer to these as class I exons for clarity in later discussion.
(§2) We next examined the effect of U1C knockdown on compound-mediated splicing. […] We next used the complete dose response to calculate the effective concentration at which deltaPSIcompound-DMSO is 30 (EC-dPSI30).
(§3) HEK293T cells were grown in DMEM media with 10% FBS. 500,000 cells in 1.75 mL of media were plated into a 6-well plate for approximately 6 h. Either siRNA negative control (ThermoFisher Silencer^TM Negative control #2, AM4613) or U1C siRNA (ThermoFisher Silencer^TM Select Pre-designed siRNA, S13225) were transfected for a final concentration of 25 nM using Invitrogen Lipofectamine RNAiMax (13778-150). In brief, 10 μL 5 μM siRNA was added to 115 μL of OptiMEM, while 5 μL Lipofectamine added to 120 μL OptiMEM for 5 minu before mixing the solutions and incubating for 20 min. 250 μL of Lipofectamine:siRNA solution was gentle added to the 1.75 mL cells. After 24 h post-transfection, cells were treated with 10 μL compound resuspended in DMSO. […] Each compound-treated experimental condition was treated and collected in duplicate, while four DMSO only treated samples per siRNA transfection were collected. RNA was isolated using KingFisher^TM Apex instrument and the MagMAX™ mirVana™ Total RNA Isolation Kit (A27828) by Thermo Fisher according to manufacturer’s protocol. Isolated RNA was submitted to Admera Health for library preparation (polyA selected, stranded) and mRNA-sequencing and >20 M 150 bp pair-end reads were returned.
RNAseq and splicing analysis were described earlier using DEDseq (https:// github.com/liwc01/DEDSeq[18]) with minor modifications. RNA sequencing reads were mapped to human genome (hg19) using STAR (version 2.7.10b); only uniquely mapped reads (with MAPQ > 10) with <5 nt/100 nt mismatches and properly paired reads were used. For splicing analysis, all junction reads (read with a gap in alignment indicating splicing) were used, including the ones mapped to unannotated splice sites. Reads were counted for different exons (for cassette exon [CE]) or exonic regions (for A5′ss or A3′ss). For each splicing event, a percent-spliced-in (PSI) value was calculated using the percent of average read number supporting the inclusion among all reads supporting either the inclusion or the exclusion. A minimum of 10 for the denominator of PSI calculation was required. Otherwise, a “NA” value would be generated. PSI values for biological replicates were averaged, and the PSI difference between the two treatment groups was calculated. For a statistical test, a 2 × 2 read counts table was made for each event, with rows for reads supporting inclusion or exclusion, and columns for the two comparing sample groups. Fisher’s exact test was used for the statistical tests. For biological replicates, each pair of the testing and control sample was analyzed by Fisher’s exact test and the geometric mean of all P-values was reported as a final P-value. PSI change (deltaPSI) of >10% (or < −10%) and P < 0.001 was used to select splicing events being regulated by the treatment. PSI calculation, Fisher’s exact test were performed using R (4.0.5). 5′ ss composition analysis was performed as described in ref. [25]. Potency of splicing modulator was determined by plotting dPSI and identifying the concentration at which the change in PSI reached 30% and reported as EC_dPSI30.

For assay [3], the system named is cassette exon / GA/GU iExon inclusion, HEK293 cells, U1C KD. In words: RNA-seq splicing analysis, compound dose response, U1C knockdown. The class given is cell-based, human.
Excerpt: as §1, §2, §3
RNAseq and splicing analysis were described earlier using DEDseq (https:// github.com/liwc01/DEDSeq[18]) with minor modifications. RNA sequencing reads were mapped to human genome (hg19) using STAR (version 2.7.10b); only uniquely mapped reads (with MAPQ > 10) with <5 nt/100 nt mismatches and properly paired reads were used. For splicing analysis, all junction reads (read with a gap in alignment indicating splicing) were used, including the ones mapped to unannotated splice sites. Reads were counted for different exons (for cassette exon [CE]) or exonic regions (for A5′ss or A3′ss). For each splicing event, a percent-spliced-in (PSI) value was calculated using the percent of average read number supporting the inclusion among all reads supporting either the inclusion or the exclusion. A minimum of 10 for the denominator of PSI calculation was required. Otherwise, a “NA” value would be generated. PSI values for biological replicates were averaged, and the PSI difference between the two treatment groups was calculated. For a statistical test, a 2 × 2 read counts table was made for each event, with rows for reads supporting inclusion or exclusion, and columns for the two comparing sample groups. […] For biological replicates, each pair of the testing and control sample was analyzed by Fisher’s exact test and the geometric mean of all P-values was reported as a final P-value. […] Potency of splicing modulator was determined by plotting dPSI and identifying the concentration at which the change in PSI reached 30% and reported as EC_dPSI30.

The target in assay [4] is short RNA duplex of 5' ss (11 nt) and U1 snRNA (11 nt). The settings on record: NMR construct without other U1 snRNP components; read-out: Kd between the compound and the short RNA duplex; cited from earlier work.

Take `Cc1cn2nc(-c3cc(=O)n4cc(N5CCNC6(CC6)C5)ccc4n3)cc(C)c2n1` [Risdiplam, risdiplam]: in assay [1], the “effect on binding between U1 snRNP and FOXM1 5' ss oligo” value is “no effect”. Also, the “geomean pEC_dPSI30 for all GA/GU iExons” value in assay [2] (Fig. 8C, mock knockdown, -log10 of compound concentration when dPSI achieves 30%) is 6.05; in assay [3] (Fig. 8C, U1C KD), 5.63. In addition, in assay [2] (highest dose, mock and U1C KD reach similar saturation), the “saturation PSI of PDXDC1 iExon” value was determined as 40. In addition, the “U1CKD Log10 effect” value in assay [3] (Fig. 8C picture, pEC-dPSI30 mock versus U1C KD) is -0.42.

For the molecule `Cc1cn2cc(-c3cc(=O)n4cc(N5CCN(C)CC5)ccc4n3)cc(F)c2n1` [SMN-C5], the Kd in assay [4] is 28 µM.
